Target: Equilibrative nucleoside transporter 1 (Homo sapiens) (UniProt Q99808)
Assay: PubChem AID 1745859
Details: U2OS JumpIn-ENT1 cells, TRACT impedance, adenosine response

Equilibrative nucleoside transporter 1 (Homo sapiens), sequence (Q99808 whole entry, looked up): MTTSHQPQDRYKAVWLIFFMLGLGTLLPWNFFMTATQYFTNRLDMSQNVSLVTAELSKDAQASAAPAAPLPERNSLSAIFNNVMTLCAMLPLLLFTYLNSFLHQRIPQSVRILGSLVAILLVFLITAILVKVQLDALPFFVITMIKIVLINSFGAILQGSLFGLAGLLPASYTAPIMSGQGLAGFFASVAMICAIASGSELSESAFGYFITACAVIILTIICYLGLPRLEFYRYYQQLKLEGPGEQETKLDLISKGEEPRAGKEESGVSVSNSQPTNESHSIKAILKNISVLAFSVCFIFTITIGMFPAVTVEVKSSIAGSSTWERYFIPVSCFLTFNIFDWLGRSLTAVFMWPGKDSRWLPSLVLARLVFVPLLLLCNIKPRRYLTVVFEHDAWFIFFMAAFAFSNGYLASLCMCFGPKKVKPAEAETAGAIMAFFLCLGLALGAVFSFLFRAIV

IC50: 5.31 nM
Structure (SMILES): NC(=O)C1CN(CCCCC(c2ccc(F)cc2)c2ccc(F)cc2)CCN1CC(=O)Nc1c(Cl)cc(N)cc1Cl (stereo unspecified)

Reference: PubChem BioAssay AID1745859
